{"source": "ChEMBL document CHEMBL1157179", "about": "“A CoMSIA study on the adenosine kinase inhibition of pyrrolo[2,3-d]pyrimidine nucleoside analogues” (Bioorg Med Chem, 2008)", "molecular_target": "Adenosine kinase (Homo sapiens) (UniProt P55263)", "sequence (P55263 2-362 limits assumed)": "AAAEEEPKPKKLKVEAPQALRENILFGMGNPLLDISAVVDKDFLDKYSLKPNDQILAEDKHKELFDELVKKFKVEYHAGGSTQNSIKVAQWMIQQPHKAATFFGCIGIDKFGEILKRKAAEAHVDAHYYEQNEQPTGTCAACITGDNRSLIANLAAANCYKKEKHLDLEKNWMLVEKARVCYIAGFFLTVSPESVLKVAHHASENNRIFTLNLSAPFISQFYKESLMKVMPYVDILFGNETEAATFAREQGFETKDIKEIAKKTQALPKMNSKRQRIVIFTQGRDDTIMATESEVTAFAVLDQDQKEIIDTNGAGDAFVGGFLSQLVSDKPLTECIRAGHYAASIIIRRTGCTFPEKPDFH"}
{"smiles": "C=CCSc1ncnc2c1c(I)cn2[C@@H]1O[C@H](C)[C@@H](O)[C@H]1O", "values": [{"measurement": "log(10'3/IC50)", "result": 2.55}]}
{"smiles": "[N-]=[N+]=NC[C@H]1O[C@@H](n2cc(Br)c3c(N)ncnc32)[C@H](O)[C@@H]1O", "values": [{"measurement": "log(10'3/IC50)", "result": 4.2}]}
{"smiles": "C[C@H]1O[C@@H](n2cc(I)c3c(SCc4ccccc4)ncnc32)[C@H](O)[C@@H]1O", "values": [{"measurement": "log(10'3/IC50)", "result": 3}]}
{"smiles": "C[C@H]1O[C@@H](n2cc(C#N)c3c(N)ncnc32)[C@H](O)[C@@H]1O", "values": [{"measurement": "log(10'3/IC50)", "result": 3.51}]}
{"smiles": "OC[C@H]1O[C@@H](n2cc(I)c3c(Cl)ncnc32)[C@H](O)[C@@H]1O", "values": [{"measurement": "log(10'3/IC50)", "result": 4.62}]}
{"smiles": "Cc1cn([C@@H]2O[C@H](C)[C@@H](O)[C@H]2O)c2ncnc(Cl)c12", "values": [{"measurement": "log(10'3/IC50)", "result": 3.27}]}
{"smiles": "NC[C@H]1O[C@@H](n2ccc3c(N)ncnc32)[C@H](O)[C@@H]1O", "values": [{"measurement": "log(10'3/IC50)", "result": 1.89}]}
{"smiles": "Nc1ncnc2c1c(Br)cn2[C@@H]1O[C@H](CO)[C@@H](O)[C@H]1O", "values": [{"measurement": "log(10'3/IC50)", "result": 3.92}]}
{"smiles": "[N-]=[N+]=NC[C@H]1O[C@@H](n2cc(I)c3c(Cl)ncnc32)[C@H](O)[C@@H]1O", "values": [{"measurement": "log(10'3/IC50)", "result": 5.05}]}
{"smiles": "NC[C@H]1O[C@@H](n2cc(Br)c3c(N)ncnc32)[C@H](O)[C@@H]1O", "values": [{"measurement": "log(10'3/IC50)", "result": 6.7}]}
{"smiles": "[N-]=[N+]=NC[C@H]1O[C@@H](n2cc(I)c3c(N)ncnc32)[C@H](O)[C@@H]1O", "values": [{"measurement": "log(10'3/IC50)", "result": 4.46}]}
{"smiles": "CCCCSc1ncnc2c1c(I)cn2[C@@H]1O[C@H](C)[C@@H](O)[C@H]1O", "values": [{"measurement": "log(10'3/IC50)", "result": 3}]}
{"smiles": "NC[C@H]1O[C@@H](n2cc(I)c3c(Cl)ncnc32)[C@H](O)[C@@H]1O", "values": [{"measurement": "log(10'3/IC50)", "result": 7}]}
{"smiles": "Nc1ncnc2c1c(Cl)cn2[C@@H]1O[C@H](CO)[C@@H](O)[C@H]1O", "values": [{"measurement": "log(10'3/IC50)", "result": 3.68}]}
{"smiles": "CNc1ncnc2c1c(I)cn2[C@@H]1O[C@H](CO)[C@@H](O)[C@H]1O", "values": [{"measurement": "log(10'3/IC50)", "result": 2.92}]}
{"smiles": "C[C@H]1O[C@@H](n2cc(I)c3c(S)ncnc32)[C@H](O)[C@@H]1O", "values": [{"measurement": "log(10'3/IC50)", "result": 2.19}]}
{"smiles": "C=C[C@H]1O[C@@H](n2cc(I)c3c(N)ncnc32)[C@H](O)[C@@H]1O", "values": [{"measurement": "log(10'3/IC50)", "result": 4}]}
{"smiles": "C[C@H]1O[C@@H](n2cc(Br)c3c(Cl)ncnc32)[C@H](O)[C@@H]1O", "values": [{"measurement": "log(10'3/IC50)", "result": 4.3}]}
{"smiles": "C[C@H]1O[C@@H](n2cc(I)c3c(Cl)ncnc32)[C@H](O)[C@@H]1O", "values": [{"measurement": "log(10'3/IC50)", "result": 5.52}]}
{"smiles": "[N-]=[N+]=NC[C@H]1O[C@@H](n2cc(Br)c3c(Cl)ncnc32)[C@H](O)[C@@H]1O", "values": [{"measurement": "log(10'3/IC50)", "result": 4}]}
{"smiles": "COC[C@H]1O[C@@H](n2cc(I)c3c(N)ncnc32)[C@H](O)[C@@H]1O", "values": [{"measurement": "log(10'3/IC50)", "result": 2.92}]}
{"smiles": "CSc1cn([C@@H]2O[C@H](C)[C@@H](O)[C@H]2O)c2ncnc(Cl)c12", "values": [{"measurement": "log(10'3/IC50)", "result": 4.15}]}
{"smiles": "CC[C@H]1O[C@@H](n2cc(Br)c3c(N)ncnc32)[C@H](O)[C@@H]1O", "values": [{"measurement": "log(10'3/IC50)", "result": 3.3}]}
{"smiles": "CSc1ncnc2c1c(I)cn2[C@@H]1O[C@H](C)[C@@H](O)[C@H]1O", "values": [{"measurement": "log(10'3/IC50)", "result": 4.35}]}
{"smiles": "C[C@H]1O[C@@H](n2cc(I)c3c(SCc4ccc([N+](=O)[O-])cc4)ncnc32)[C@H](O)[C@@H]1O", "values": [{"measurement": "log(10'3/IC50)", "result": 2.7}]}
{"smiles": "CC[C@H]1O[C@@H](n2cc(I)c3c(N)ncnc32)[C@H](O)[C@@H]1O", "values": [{"measurement": "log(10'3/IC50)", "result": 4.22}]}
{"smiles": "NC[C@H]1O[C@@H](n2cc(I)c3c(N)ncnc32)[C@H](O)[C@@H]1O", "values": [{"measurement": "log(10'3/IC50)", "result": 6.22}]}
{"smiles": "N#Cc1cn([C@@H]2O[C@H](CO)[C@@H](O)[C@H]2O)c2ncnc(N)c12", "values": [{"measurement": "log(10'3/IC50)", "result": 3.51}]}
{"smiles": "CSc1cn([C@@H]2O[C@H](C)[C@@H](O)[C@H]2O)c2ncnc(N)c12", "values": [{"measurement": "log(10'3/IC50)", "result": 2.87}]}
